Activity calls are given as the source filed them. The rule behind the calls is not given here.

A short description of assay [1]: Induction of glucose dependent insulin secretion in rat INS-1 832/13 cells expressing GLP-1R assessed as fold increase at 5 uM starved for 2 hrs in KRB buffer followed by 16.7 mM of glucose addition and measured after 90 mins in presence of GLP-1 by ELISA. Type of assay: functional, INS1(832/13). The conditions noted are these: 1.5 h.
The target in assay [2] is T1, Vasoactive intestinal polypeptide receptor 1 (Homo sapiens) (UniProt P32241).
T1 sequence (whole entry): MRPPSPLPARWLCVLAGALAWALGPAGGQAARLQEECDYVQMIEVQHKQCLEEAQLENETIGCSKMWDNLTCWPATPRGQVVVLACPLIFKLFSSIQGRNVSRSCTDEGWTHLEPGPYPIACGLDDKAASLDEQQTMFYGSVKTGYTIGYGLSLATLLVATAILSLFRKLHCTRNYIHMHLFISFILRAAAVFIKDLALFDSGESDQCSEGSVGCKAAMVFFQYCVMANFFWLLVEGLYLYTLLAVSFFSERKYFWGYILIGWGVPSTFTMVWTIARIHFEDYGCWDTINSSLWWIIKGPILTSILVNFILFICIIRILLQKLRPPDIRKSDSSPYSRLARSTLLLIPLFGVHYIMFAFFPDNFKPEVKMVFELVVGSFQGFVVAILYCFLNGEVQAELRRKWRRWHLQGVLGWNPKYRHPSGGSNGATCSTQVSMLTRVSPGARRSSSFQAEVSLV
In words: Positive allosteric modulation of VIPR1 (unknown origin) transfected in HEK cells expressing luciferase2P assessed as increase in luciferase activity. It is filed as cell-based. The conditions noted are these: filed as positive allosteric modulator.

Assay [3] relates to Mus musculus. The experiment in a line: Anti-diabetic activity against overnight-fasted male CD1 mouse assessed as reduction in blood glucose concentration at 10 mg/kg, ip preadministered with compound for 45 mins followed by 2.5 g/kg dextrose addition and measured after 60 mins by iGTT test. It is filed as functional, organism-based. Conditions: time 105.0 min.
Assay [4] has as its target Glucagon receptor (Homo sapiens) (UniProt P47871). The experiment in a line: Positive allosteric modulation of glucagon receptor (unknown origin) transfected in HEK cells expressing luciferase2P assessed as increase in luciferase activity. Type of assay: cell-based. The conditions noted are these: filed as positive allosteric modulator.
The test system of assay [5] is Mus musculus. In words: Anti-diabetic activity against overnight-fasted male CD1 mouse assessed as reduction in blood glucose concentration at 10 to 30 mg/kg, ip preadministered with compound for 45 mins followed by 2.5 g/kg dextrose addition and measured after 30 mins by iGTT test. It is filed as functional, organism-based. The conditions noted are these: dose 10-30 mg/kg, time 75.0 min.

The target in assay [6] is Glucagon-like peptide 1 receptor (Homo sapiens) (UniProt P43220). In words: Positive allosteric modulation of human GLP-1 receptor in HEK cells expressing luciferase2P assessed as cAMP level incubated for 4 hrs by luciferase based assay relative to GLP-1. Conditions: filed as positive allosteric modulator. Set-up: concentration or dose not given beside the values. It is filed as functional, cell-based.
Chain of Glucagon-like peptide 1 receptor (Homo sapiens) (P43220 whole entry): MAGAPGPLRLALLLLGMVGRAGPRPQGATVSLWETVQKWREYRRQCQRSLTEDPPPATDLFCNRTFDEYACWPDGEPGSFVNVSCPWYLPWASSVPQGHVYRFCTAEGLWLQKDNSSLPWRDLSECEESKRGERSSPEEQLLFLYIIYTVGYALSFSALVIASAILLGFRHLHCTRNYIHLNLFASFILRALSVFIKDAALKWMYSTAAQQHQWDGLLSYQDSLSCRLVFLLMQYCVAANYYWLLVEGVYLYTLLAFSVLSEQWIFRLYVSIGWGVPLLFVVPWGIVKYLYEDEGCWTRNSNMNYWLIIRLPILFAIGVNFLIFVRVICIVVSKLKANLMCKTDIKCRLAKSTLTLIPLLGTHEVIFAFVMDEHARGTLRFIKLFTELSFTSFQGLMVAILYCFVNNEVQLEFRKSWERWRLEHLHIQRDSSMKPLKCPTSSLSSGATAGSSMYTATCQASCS

Assay [7] has the same target. The experiment in a line: Positive allosteric modulation of human GLP-1 receptor in HEK cells expressing luciferase2P at 5 uM incubated for 4 hrs in presence of varying concentrations of GLP-1 by luciferase based assay. Conditions: filed as positive allosteric modulator. Type of assay: cell-based.
Assay [8] has as its system INS1(832/13). In words: Induction of glucose dependent insulin secretion in rat INS-1 832/13 cells expressing GLP-1R at 5 uM starved for 2 hrs in KRB buffer followed by glucose addition and measured after 90 mins by ELISA. It is filed as functional, cell-based.
Assay [9] concerns Mus musculus. In words: Anti-diabetic activity against overnight-fasted male CD1 mouse assessed as reduction in blood glucose concentration at 10 mg/kg, ip preadministered with compound for 45 mins followed by 2.5 g/kg dextrose addition and measured after 60 mins in the presence of sitagliptin by iGTT test relative to control. Type of assay: functional. Set-up: scale not given: the % may be the effect or the level left. Conditions: time 105 min, 1.75 h.

The target in assay [10] is Glucagon-like peptide 1 receptor (Homo sapiens) (UniProt P43220). In words: Positive allosteric modulation of human GLP-1 receptor in HEK cells expressing luciferase2P incubated for 4 hrs in presence of 10 nM of GLP-1 by luciferase based assay. Type of assay: cell-based. The conditions noted are these: filed as positive allosteric modulator, dose 0.78-100 µM.
The target in assay [11] is T2, Gastric inhibitory polypeptide receptor (Homo sapiens) (UniProt P48546).
T2 sequence (whole entry): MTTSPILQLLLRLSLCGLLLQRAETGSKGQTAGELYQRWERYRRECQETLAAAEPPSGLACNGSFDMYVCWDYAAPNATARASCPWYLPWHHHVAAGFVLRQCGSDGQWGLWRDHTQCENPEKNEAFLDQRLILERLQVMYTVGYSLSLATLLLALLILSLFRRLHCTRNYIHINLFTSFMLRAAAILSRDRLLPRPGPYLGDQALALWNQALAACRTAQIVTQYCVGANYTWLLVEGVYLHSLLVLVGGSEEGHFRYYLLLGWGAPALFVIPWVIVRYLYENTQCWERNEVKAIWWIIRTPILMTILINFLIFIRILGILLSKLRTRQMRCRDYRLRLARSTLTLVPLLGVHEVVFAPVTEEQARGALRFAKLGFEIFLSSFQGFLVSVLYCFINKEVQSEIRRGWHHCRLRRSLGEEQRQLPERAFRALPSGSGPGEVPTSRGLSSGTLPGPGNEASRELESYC
In words: Positive allosteric modulation of GIPR (unknown origin) transfected in HEK cells expressing luciferase2P assessed as increase in luciferase activity. Type of assay: cell-based. The conditions noted are these: filed as positive allosteric modulator.

Assay [12] relates to Mus musculus. The experiment in a line: Anti-diabetic activity against overnight-fasted male CD1 mouse assessed as reduction in blood glucose concentration at 5 to 30 mg/kg, ip preadministered with compound for 45 mins followed by 2.5 g/kg dextrose addition and measured after 60 mins by iGTT test. Type of assay: functional, organism-based. Conditions: dose 5-30 mg/kg, time 105.0 min.

The target in assay [13] is Glucagon-like peptide 1 receptor (Homo sapiens) (UniProt P43220). In words: Positive allosteric modulation of human GLP-1 receptor in HEK cells expressing luciferase2P assessed as fold increase in GLP-1R activity incubated for 4 hrs in presence of GLP-1 by luciferase based assay relative to GLP-1 alone. It is filed as cell-based. The conditions noted are these: filed as positive allosteric modulator.

Assay [14] concerns Mus musculus. In words: Anti-diabetic activity against overnight-fasted male CD1 mouse assessed as reduction in blood glucose concentration at 5 mg/kg, ip preadministered with compound for 45 mins followed by 2.5 g/kg dextrose addition and measured after 60 mins by iGTT test. It is filed as functional, organism-based. Conditions: time 105.0 min.
Assay [15] concerns Mus musculus. The experiment in a line: Anti-diabetic activity against overnight-fasted male CD1 mouse assessed as reduction in blood glucose concentration at 10 to 30 mg/kg, ip preadministered with compound for 45 mins followed by 2.5 g/kg dextrose addition and measured after 60 mins by iGTT test relative to control. Type of assay: functional. On the set-up: scale not given: the % may be the effect or the level left. The conditions noted are these: dose 10-30 mg/kg, time 105 min, 1.75 h.

Chain of Glucagon receptor (Homo sapiens) (P47871 whole entry): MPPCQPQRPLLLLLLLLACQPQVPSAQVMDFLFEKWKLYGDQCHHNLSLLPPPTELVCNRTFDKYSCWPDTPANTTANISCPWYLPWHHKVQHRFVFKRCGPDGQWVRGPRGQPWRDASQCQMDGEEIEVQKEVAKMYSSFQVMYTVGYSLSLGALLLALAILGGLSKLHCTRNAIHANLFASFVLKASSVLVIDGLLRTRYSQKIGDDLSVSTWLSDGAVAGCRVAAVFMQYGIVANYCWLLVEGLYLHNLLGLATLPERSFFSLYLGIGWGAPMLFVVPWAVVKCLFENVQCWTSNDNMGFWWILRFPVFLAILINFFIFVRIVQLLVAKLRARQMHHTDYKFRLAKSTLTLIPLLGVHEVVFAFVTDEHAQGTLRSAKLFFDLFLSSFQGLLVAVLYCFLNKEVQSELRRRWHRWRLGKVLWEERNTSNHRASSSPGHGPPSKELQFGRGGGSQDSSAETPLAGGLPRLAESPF

On to `Cc1ccc(C(=O)c2c(N)sc3c2CCC(C)(C)C3)cc1`, for which the “fold change (FC)” value in assay [1] and in assay [13] was over 2 in each case. The outcome in [2], in assay [3], in assay [4], in [5], in assay [7] and in [8] was Active. The result in assay [11], in [12] and in [14] was Active. The Activity in [6] was 268%; in assay [9] it was about 75%; in assay [10], “Dose-Dependent Effect”; in [15] it was 50%.
